Common to all, as to assay type: biochemical
In assay [1] the target is Human recombinant full length HDAC6 (Homo sapiens (Human), UniProt Q9UBN7). In words: Test 4: HDAC6 assay. As for the experimental part:
(§1) Control wells with HDAC4 only (positive control) and without HDAC4 (negative control) were included on the microplate. Bovine trypsin (4.5 μl of a 300 nM solution) was added and the plate incubated for additional 15 minutes at room temperature. The plate was placed in a fluorescence microplate reader, and read at an excitation wavelength of 360 nm and an emission wavelength of 450 nm with a 10 nm bandpath. Fluorescence values for all wells containing HDAC4 (positive control and wells with test compound) were corrected by subtracting negative control fluorescence values, and IC50 values were calculated by fitting the dose-response curves to a 4-parameter logistic function.
Test 4: HDAC6 Assay Description
A similar assay procedure as described in Test 2 was used for HDAC6. Human recombinant full length HDAC6 expressed in a baculovirus expression system was purchased from BPS BioSciences (San Diego, Calif., U.S.A.). The substrate used in the […] assay was 5 μM of acetyl-Gly-Ala-Lys(acetyl)-AMC.

The target in another assay is Human recombinant HDAC4 (Homo sapiens (Human), UniProt P56524). In words: Test 2: HDAC4 assay (fluorogenic substrate, 5 μM acetyl-Gly-Ala-Lys(ε-trifluoroacetyl)-AMC). To be noted: Test 2 (values without asterisk). How it is done: Test 2: HDAC4 Assay Description
Chain of Human recombinant HDAC4 (P56524 2-1084): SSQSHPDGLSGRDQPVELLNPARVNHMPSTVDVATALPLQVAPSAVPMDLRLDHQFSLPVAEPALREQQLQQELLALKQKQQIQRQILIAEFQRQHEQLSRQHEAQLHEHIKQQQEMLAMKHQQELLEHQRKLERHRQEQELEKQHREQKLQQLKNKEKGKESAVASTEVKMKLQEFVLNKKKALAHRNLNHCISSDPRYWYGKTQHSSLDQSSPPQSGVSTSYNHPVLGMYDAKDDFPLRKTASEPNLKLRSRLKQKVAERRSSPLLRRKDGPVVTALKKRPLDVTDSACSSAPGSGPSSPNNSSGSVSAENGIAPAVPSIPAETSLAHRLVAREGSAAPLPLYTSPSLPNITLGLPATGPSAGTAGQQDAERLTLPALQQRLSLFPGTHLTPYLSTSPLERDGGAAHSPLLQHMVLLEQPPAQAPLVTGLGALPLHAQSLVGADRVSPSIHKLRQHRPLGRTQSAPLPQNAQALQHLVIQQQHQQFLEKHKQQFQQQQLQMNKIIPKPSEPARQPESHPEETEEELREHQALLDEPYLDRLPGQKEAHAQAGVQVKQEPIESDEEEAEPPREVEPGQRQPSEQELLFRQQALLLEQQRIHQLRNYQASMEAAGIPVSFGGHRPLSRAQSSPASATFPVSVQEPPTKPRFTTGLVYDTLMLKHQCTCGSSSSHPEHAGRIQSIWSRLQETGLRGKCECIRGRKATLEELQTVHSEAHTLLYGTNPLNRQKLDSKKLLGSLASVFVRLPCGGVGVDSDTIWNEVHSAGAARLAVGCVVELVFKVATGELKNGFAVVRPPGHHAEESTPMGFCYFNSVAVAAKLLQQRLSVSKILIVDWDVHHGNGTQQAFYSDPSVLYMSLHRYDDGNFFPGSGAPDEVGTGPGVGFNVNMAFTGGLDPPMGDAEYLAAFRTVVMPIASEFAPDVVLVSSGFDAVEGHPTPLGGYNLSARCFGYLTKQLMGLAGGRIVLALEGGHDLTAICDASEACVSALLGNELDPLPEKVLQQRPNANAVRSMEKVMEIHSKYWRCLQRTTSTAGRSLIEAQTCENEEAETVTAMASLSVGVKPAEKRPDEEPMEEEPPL
as §1

For assay [2], the target named is Human recombinant full length HDAC1 (Homo sapiens (Human), UniProt Q13547). Briefly: Test 3: HDAC1 assay. To be noted: substrate 5 μM acetyl-Gly-Ala-Lys(acetyl)-AMC. How it is done:
as §1
Test 3: HDAC1 Assay Description
A similar assay procedure as described in Test 2 was used for HDAC1. Human recombinant full length HDAC1 expressed in a baculovirus expression system was purchased from BPS BioSciences (San Diego, Calif., U.S.A.). The substrate used in the […] assay was 5 μM of acetyl-Gly-Ala-Lys(acetyl)-AMC.

The mark [3] stands for this setting: Test 4, substrate 5 μM acetyl-Gly-Ala-Lys(acetyl)-AMC.

Like-named read-outs stand apart in the source and are kept apart here.

Chain of Human recombinant full length HDAC6 (Q9UBN7 whole entry): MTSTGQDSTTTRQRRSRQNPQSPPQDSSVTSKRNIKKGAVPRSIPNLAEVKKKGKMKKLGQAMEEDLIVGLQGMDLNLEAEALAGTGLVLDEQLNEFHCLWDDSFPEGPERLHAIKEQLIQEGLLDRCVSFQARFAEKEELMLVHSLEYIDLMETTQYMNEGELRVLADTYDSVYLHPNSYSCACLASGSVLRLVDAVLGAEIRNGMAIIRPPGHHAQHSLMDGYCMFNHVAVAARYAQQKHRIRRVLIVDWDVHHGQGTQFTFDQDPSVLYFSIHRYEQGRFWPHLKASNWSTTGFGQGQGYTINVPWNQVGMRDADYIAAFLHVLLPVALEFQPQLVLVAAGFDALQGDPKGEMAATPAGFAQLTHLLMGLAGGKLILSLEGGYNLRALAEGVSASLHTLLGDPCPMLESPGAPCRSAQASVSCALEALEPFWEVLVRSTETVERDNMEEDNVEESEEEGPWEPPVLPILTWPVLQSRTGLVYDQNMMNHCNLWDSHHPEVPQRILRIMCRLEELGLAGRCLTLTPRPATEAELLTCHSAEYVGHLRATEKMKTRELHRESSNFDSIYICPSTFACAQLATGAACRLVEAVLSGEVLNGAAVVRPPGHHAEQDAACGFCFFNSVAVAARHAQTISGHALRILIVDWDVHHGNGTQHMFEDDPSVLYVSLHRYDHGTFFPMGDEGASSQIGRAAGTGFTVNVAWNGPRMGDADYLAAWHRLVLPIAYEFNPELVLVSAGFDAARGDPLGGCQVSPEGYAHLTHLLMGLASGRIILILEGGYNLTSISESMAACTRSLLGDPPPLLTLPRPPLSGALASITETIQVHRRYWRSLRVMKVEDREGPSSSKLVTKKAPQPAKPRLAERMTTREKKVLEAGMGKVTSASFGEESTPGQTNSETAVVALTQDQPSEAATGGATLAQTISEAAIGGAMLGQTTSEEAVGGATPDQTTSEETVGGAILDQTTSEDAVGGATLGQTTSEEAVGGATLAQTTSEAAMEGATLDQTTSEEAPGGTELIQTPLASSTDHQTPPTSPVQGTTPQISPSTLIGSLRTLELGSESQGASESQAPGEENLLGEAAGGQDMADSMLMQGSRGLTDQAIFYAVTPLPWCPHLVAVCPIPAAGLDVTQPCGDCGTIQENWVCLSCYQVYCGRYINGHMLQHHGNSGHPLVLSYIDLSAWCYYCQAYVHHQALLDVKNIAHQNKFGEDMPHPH
Chain of Human recombinant full length HDAC1 (Q13547 whole entry): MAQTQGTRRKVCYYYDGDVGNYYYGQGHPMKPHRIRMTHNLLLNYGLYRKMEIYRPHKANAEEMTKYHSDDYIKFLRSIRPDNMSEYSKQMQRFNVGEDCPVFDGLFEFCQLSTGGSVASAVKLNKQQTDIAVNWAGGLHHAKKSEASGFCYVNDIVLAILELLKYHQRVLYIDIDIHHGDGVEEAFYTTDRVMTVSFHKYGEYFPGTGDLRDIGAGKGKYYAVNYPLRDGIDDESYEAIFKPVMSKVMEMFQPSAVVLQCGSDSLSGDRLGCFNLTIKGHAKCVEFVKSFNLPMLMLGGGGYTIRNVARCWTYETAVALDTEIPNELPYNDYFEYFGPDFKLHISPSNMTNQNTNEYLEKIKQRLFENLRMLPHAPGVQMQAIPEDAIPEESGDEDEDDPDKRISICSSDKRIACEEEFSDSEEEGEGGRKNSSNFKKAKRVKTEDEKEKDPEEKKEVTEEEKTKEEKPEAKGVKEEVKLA

By IC50 is commonly meant the concentration needed to halve the response being measured. As to `O=C(Nc1ccnc(C(F)(F)F)c1)c1ccc(-c2noc(C(F)(F)F)n2)cc1` [Example 74, 4-(5-(Trifluoromethyl)-1,2,4-oxadiazol-3-yl)-N-(2-(trifluoromethyl)pyridin-4-yl)benzamide], the IC50 was 8.6 µM in assay [1] (setting [3]), 0.19 µM at Human recombinant HDAC4 and above 10 µM in assay [2].
For `O=C(NC1CCC1)c1ccc(-c2noc(C(F)(F)F)n2)cc1` [Example 25, N-cyclobutyl-4-(5-(trifluoromethyl)-1,2,4-oxadiazol-3-yl)benzamide], in that order: 6.5 µM, 0.47 µM and above 10 µM.
With `CC(C)N(C)C[C@@H](C)NC(=O)c1ccc(-c2noc(C(F)(F)F)n2)cc1F` [Example 142, (R)-2-fluoro-N-(1-(isopropyl(methyl)amino)propan-2-yl)-4-(5-(trifluoromethyl)-1,2,4-oxadiazol-3-yl)benzamide], the IC50 was 5.4 µM in assay [1] (setting [3]), 0.0072 µM at Human recombinant HDAC4 and above 10 µM in assay [2].
On to `CCC(CO)NC(=O)c1ccc(-c2noc(C(F)(F)F)n2)cc1` (stereo not drawn) [Example 56, N-(1-tetrahydroxy-2 H-butan-2-yl)-4-(5-(trifluoromethyl)-1,2,4-oxadiazol-3-yl)benzamide], for which the IC50 in assay [1] (setting [3]) is 6.8 µM; on Human recombinant HDAC4, 0.55 µM; in assay [2], above 10 µM.
`O=C(Nc1cccnc1)c1ccc(-c2noc(C(F)(F)F)n2)cc1` [Example 48, N-(ppyridin-3-yl)-4-(5-(trifluoromethyl)-1,2,4-oxadiazol-3-yl)benzamide]: the results for the IC50 (in assay [1] (setting [3]); at Human recombinant HDAC4; in assay [2]) were 4.8 µM, 0.14 µM and above 10 µM, respectively.
`CCN(CC)C[C@H](NC(=O)c1ccc(-c2noc(C(F)(F)F)n2)cc1F)C(C)C` [Example 135, (R)—N-(1-(diethylamino)-3-methylbutan-2-yl)-2-fluoro-4-(5-(trifluoromethyl)-1,2,4-oxadiazol-3-yl)benzamide]: the results for the IC50 (in assay [1] (setting [3]); on Human recombinant HDAC4; in assay [2]) were above 10 µM, 0.01 µM and above 10 µM, respectively.
Consider `CC(C)(C)OC(=O)N1CCC(NC(=O)c2ccc(-c3noc(C(F)(F)F)n3)cc2)CC1` [Example 59, 4-[4-(5-trifluoromethyl-[1,2,4]oxadiazol-3-yl)-benzoylamino]-piperidine-1-carboxylic acid tert-butyl ester], for which the figures for the IC50 (in assay [1] (setting [3]); on Human recombinant HDAC4; in assay [2]) were above 10 µM, 1.4 µM and above 10 µM, respectively.
As for `COCCN(C)C(=O)c1ccc(-c2noc(C(F)(F)F)n2)cc1` [Example 18, N-(2-methoxyethyl)-N-methyl-4-(5-(trifluoromethyl)-1,2,4-oxadiazol-3-yl)benzamide], the values for the half-maximal inhibitory concentration (IC50) (in assay [1] (setting [3]); on Human recombinant HDAC4; in assay [2]) were above 10 µM, 0.39 µM and above 10 µM, respectively.
As for `CN(C)C(=O)c1ccc(-c2noc(C(F)(F)F)n2)cc1` [Example 1, N,N-dimethyl-4-(5-(trifluoromethyl)-1,2,4-oxadiazol-3-yl)benzamide], the IC50 in assay [1] (setting [3]) was above 10 µM; on Human recombinant HDAC4, 0.36 µM; in assay [2], above 10 µM.
Take `CCCN(CCC)C[C@@H](C)NC(=O)c1ccc(-c2noc(C(F)(F)F)n2)cc1F` [Example 141, (R)—N-(1-(dipropylamino)propan-2-yl)-2-fluoro-4-(5-(trifluoromethyl)-1,2,4-oxadiazol-3-yl)benzamide]: the figures for the IC50 (in assay [1] (setting [3]); on Human recombinant HDAC4; in assay [2]) were 1.4 µM, 0.0014 µM and 4.2 µM, respectively.
With `CCCCN(C)C[C@@H](C)NC(=O)c1ccc(-c2noc(C(F)(F)F)n2)cc1F` [Example 151, (R)—N-(1-(butyl(methyl)amino)propan-2-yl)-2-fluoro-4-(5-(trifluoromethyl)-1,2,4-oxadiazol-3-yl)benzamide], the IC50 is 2.6 µM in assay [1] (setting [3]), 0.0018 µM at Human recombinant HDAC4 and 2.7 µM in assay [2].
For `Cc1ccccc1NS(=O)(=O)c1ccc(-c2noc(C(F)(F)F)n2)cc1` [Example 103, N-o-tolyl-4-(5-trifluoromethyl-[1,2,4]oxadiazol-3-yl)-benzenesulfonamide], the IC50 in assay [1] (setting [3]) is 0.7 µM; at Human recombinant HDAC4 it was 0.08 µM; in assay [2], above 10 µM.
Take `CCCN(C)C[C@@H](C)NC(=O)c1ccc(-c2noc(C(F)(F)F)n2)cc1F` [Example 143, (R)-2-fluoro-N-(1-(methyl(propyl)amino)propan-2-yl)-4-(5-(trifluoromethyl)-1,2,4-oxadiazol-3-yl)benzamide]: the 50% inhibitory concentration (IC50) in assay [1] (setting [3]) came to 3.3 µM; on Human recombinant HDAC4 it was 0.0012 µM; in assay [2], 5.8 µM.
Take `C[C@H](CN1CCCCC1)NC(=O)c1ccc(-c2noc(C(F)(F)F)n2)cc1` [Example 131, (R)—N-(1-(piperidin-1-yl)propan-2-yl)-4-(5-(trifluoromethyl)-1,2,4-oxadiazol-3-yl)benzamide]: the IC50 in assay [1] (setting [3]) came out at 7.5 µM; on Human recombinant HDAC4 it was 0.01 µM; in assay [2] it was 6.55 µM.
Consider `CCC(CC)NC(=O)c1ccc(-c2noc(C(F)(F)F)n2)cc1` [Example 30, N-(pentan-3-yl)-4-(5-(trifluoromethyl)-1,2,4-oxadiazol-3-yl)benzamide], for which the IC50 in assay [1] (setting [3]) was above 10 µM; at Human recombinant HDAC4, 6.4 µM; in assay [2], above 10 µM.
In the case of `CN(C)C[C@@H](Cc1ccccc1)NC(=O)c1ccc(-c2noc(C(F)(F)F)n2)cc1F` [Example 118, (R)—N-(1-(dimethylamino)-3-phenylpropan-2-yl)-2-fluoro-4-(5-(trifluoromethyl)-1,2,4-oxadiazol-3-yl)benzamide], the figures for the IC50 (in assay [1] (setting [3]); at Human recombinant HDAC4; in assay [2]) were 4.7 µM, 0.22 µM and above 10 µM, respectively.
In the case of `CN1CC[C@@H](NC(=O)c2ccc(-c3noc(C(F)(F)F)n3)cc2)C1` [Example 153, (R)—N-(1-methylpyrrolidin-3-yl)-4-(5-(trifluoromethyl)-1,2,4-oxadiazol-3-yl)benzamide], the IC50 was found to be 3 µM in assay [1] (setting [3]), 0.0036 µM on Human recombinant HDAC4 and 1.8 µM in assay [2].
Turning to `CC(C)N(C)C(=O)c1ccc(-c2noc(C(F)(F)F)n2)cc1` [Example 24, N-isopropyl-N-methyl-4-(5-(trifluoromethyl)-1,2,4-oxadiazol-3-yl)benzamide], the IC50 was above 10 µM in assay [1] (setting [3]), 0.77 µM at Human recombinant HDAC4 and above 10 µM in assay [2].
In the case of `CN1CCC(NC(=O)c2ccc(-c3noc(C(F)(F)F)n3)cc2)CC1` [Example 38, N-(1-methylpiperidin-4-yl)-4-(5-(trifluoromethyl)-1,2,4-oxadiazol-3-yl)benzamide], the values for the IC50 (in assay [1] (setting [3]); on Human recombinant HDAC4; in assay [2]) were 3.9 µM, 0.3 µM and above 10 µM, respectively.
With `O=C(c1ccc(-c2noc(C(F)(F)F)n2)cc1)N1CCCCC1` [Example 33, Piperidin-1-yl(4-(5-(trifluoromethyl)-1,2,4-oxadiazol-3-yl)phenyl)methanone], the IC50 in assay [1] (setting [3]) is above 10 µM; on Human recombinant HDAC4, 0.4 µM; in assay [2] it was above 10 µM.
For the compound `O=C(NCCCO)c1ccc(-c2noc(C(F)(F)F)n2)cc1` [Example 17, N-(3-hydroxyypropyl)-4-(5-(trifluoromethyl)-1,2,4-oxadiazol-3-yl)benzamide], the IC50 was 8.6 µM in assay [1], 1.4 µM at Human recombinant HDAC4 and above 10 µM in assay [2].
Take `O=C(Cc1ccc(-c2noc(C(F)(F)F)n2)cc1)N1CCOCC1` [Example 9, 1-Morpholino-2-(4-(5-(trifluoromethyl)-1,2,4-oxadiazol-3-yl)phenyl)ethanone]: the results for the half-maximal inhibitory concentration (IC50) (in assay [1] (setting [3]); on Human recombinant HDAC4; in assay [2]) were 5.5 µM, 0.85 µM and above 10 µM, respectively.
